Common to all, as to format: physicochemical
Data set [1] in a line: Set of stress tests of atorvastatin (HPLC). The procedure: The following experiments were carried out in order to determine the instability of atorvastatin. The purpose was to find out which factors lead to the degradation of the product. • 1. Set of stress tests. The stock solution of atorvastatin (2 ml) was gradually subjected to the following experiments: a. boil (24 hr) with 2 ml of 0.2 N hydrochloric acid, b. boil (24 hr) with 2 ml of 0.2 N acetic acid, c. boil (24 hr) with 2 ml of 0.2 N sodium hydroxide, d. boil (24 hr) with 2 ml of 4% hydrogen peroxide, e. boil (24 hr) with 2 ml of water, f. irradiation with UV radiation (5 hr), g. irradiation with visible light (24 hr), h. solid substance heated at 100° C. for 24 hr, i. solid substance subjected to UV radiation (5 hr), j. solid substance subjected to visible light (24 hr).

Data set [2] is described as follows: Oxidation of 1% atorvastatin solution in ethyl acetate-acetonitrile (1:1) at 40° C. The procedure:
In order to precisely determine the decomposition mechanism, the following experiments examining only the oxidative decomposition of atorvastatin were carried out. A recent publication/Pharmaceutical Development and Technology, 7(1), 1-32 (2002)/described a set of experiments which are suitable for the recognition of oxidation of substances and for the determination of its mechanism.
The following experiments were carried out:
a. oxidation of a 1% solution of atorvastatin in the system of ethyl acetate-acetonitrile (1:1) at 40° C. using a radical initiator (2,2′-azobiscyanopentanoic acid) at a pressure of 1 MPa of oxygen; b. oxidation of a 1% solution of atorvastatin in the system of ethyl acetate-acetonitrile (1:1) at 40° C. without a radical initiator; c. control experiment in the system of ethyl acetate-acetonitrile (1:1) at 40° C. using a radical initiator (2,2′-azobiscyanopentanoic acid) in an inert atmosphere of argon (the partial pressure of oxygen found as being about 1 kPa).

Data set [3] in a line: Stability tests of solid amorphous atorvastatin in different packages and oxygen partial pressures. The procedure: In order to make the carried-out experiments more precise, stability tests of solid amorphous atorvastatin and of several selected dosage forms were established. As to containers, polyethylene (PE) and an aluminium foil with a sealable PE layer (Al+PE) were used. Some of the stability data were determined in nitrogen atmosphere (N2) (with a partial pressure of oxygen of roughly 3 kPa).

Data set [4] can be described thus: Example 1: amorphous atorvastatin sealed in aluminium foil with oxygen absorbers, 80° C., 72 hr (HPLC). The procedure:
Amorphous atorvastatin (1 g) was sealed in a sealable aluminium foil together with the oxygen absorber Ageless® Z100 (Mitsubishi) or with the absorber of oxygen and carbon dioxide Ageless® E100 (Mitsubishi) and the sample was heated at 80° C. for 72 hr. The reference sample was prepared and heated in the same way without the use of absorbers.

Data set [5] can be described thus: Example 2: amorphous atorvastatin sealed in aluminium foil with oxygen absorbers, 40° C., 1.5 months (HPLC). The procedure:
Amorphous atorvastatin (1 g) was sealed in a sealable aluminium foil together with the oxygen absorber Ageless® Z100 (Mitsubishi) or with the absorber of oxygen and carbon dioxide Ageless® E100 (Mitsubishi) and the sample was heated at 40° C. for 1.5 months. The reference sample was prepared and heated in the same way without the use of absorbers.

Data set [6] in a line: Example 7: test of stability under reduced pressure. The procedure: A pure amorphous atorvastatin substance was close din a tempered box under air pressure of 5.5-7.5 kPa. The partial pressure of oxygen was estimated as 1.2-1.5 kPa
The measurement has given the following results:
For comparison, sample 0010903/18 was kept in a thermostat at 80° C. under normal atmospheric pressure, i.e. partial pressure of oxygen about 18 kPa for 160 hours.

The mark [7] stands for this setting: 80° C., 72 hr, oxygen absorber Ageless Z100.
The mark [8] stands for this setting: 80° C., 72 hr, oxygen and carbon dioxide absorber Ageless E100.
[9] abbreviates: 80° C., 72 hr, reference sample without absorbers.
Setting [10] is: 40° C., 1.5 months, oxygen absorber Ageless Z100.
Setting [11] is: 40° C., 1.5 months, oxygen and carbon dioxide absorber Ageless E100.
The mark [12] stands for this setting: 40° C., 1.5 months, reference sample without absorbers.

Where a name gives a salt, the structure may show the parent alone.

`CC(C)c1c(C(=O)Nc2ccccc2)c(-c2ccccc2)c(-c2ccc(F)cc2)n1CC[C@@H](O)C[C@@H](O)CC(=O)O` [atorvastatin, hemicalcium salt of (3R,5R) 7-[3-phenyl-4-phenylcarbamoyl-2-(4-fluorophenyl)-5-isopropylpyrrol-1-yl]-3,5-dihydroxyheptanoic acid]: the “Content of Atorvastatin” value in data set [1] (5 hr under UV in water) is listed as 64.3%; in data set [1] (solid substance 5 hr, UV), 99.3%; in data set [1] (solid substance 24 hr, 100° C.) it was 96.3%; in data set [1] (solid substance 24 hr, visible light), 96.5%; in data set [1] (solution, 24 hr in the light (visible)), 104.5%; in data set [1] (stock solution, 24 hr boil in 0.1 N AcOH) it was 83.2%. The “Content of Atorvastatin” value in data set [1] (stock solution, 24 hr boil in 0.1 N HCl) amounted to 2.1%; in data set [1] (stock solution, 24 hr boil in 0.1 N NaOH) it was 72.0%; in data set [1] (stock solution, 24 hr boil in 2% H2O2) it was 54.8%; in data set [1] (stock solution, 24 hr boil in water), 88.4%. In addition, the Impurities in data set [2] (0 hours, entry sample) is recorded as 0.49%; in data set [2] (24 hours, radical initiator no, PO 1 MPa, 40° C.), 9.27%; in data set [2] (24 hours, radical initiator yes, PO 0.001 MPa (argon), 40° C.), 0.98%; in data set [2] (24 hours, radical initiator yes, PO 1 MPa, 40° C.), 6.42%; in data set [2] (48 hours, radical initiator yes, PO 0.001 MPa (argon), 40° C.) it was 1.38%; in data set [2] (48 hours, radical initiator yes, PO 1 MPa, 40° C.), 24.37%. Further, in data set [2] (72 hours, radical initiator yes, PO 1 MPa, 40° C.), the Impurities worked out at 30.93%.
As to “hemicalcium salt of (3R,5R) 7-[3-phenyl-4-phenylcarbamoyl-2-(4-fluorophenyl)-5-isopropylpyrrol-1-yl]-3,5-dihydroxyheptanoic acid [amorphous atorvastatin]”, the Impurities amounted to 0.21% in data set [3] (0 months, entry); 0.39% in data set [3] (3 months, 5 ° C., package 2x RE, PO 18 kPa); 0.34% in data set [3] (3 months, 5 ° C., package PE + Al, PO 3 kPa (N2)); 0.34% in data set [3] (3 months, 5 ° C., package PE + Al, PO 18 kPa); 0.77% in data set [3] (3 months, 25 ° C., package 2x PE, PO 18 kPa); 0.43% in data set [3] (3 months, 25 ° C., package PE + Al, PO 3 kPa (N2)). The Impurities was 0.63% in data set [3] (3 months, 25 ° C., package PE + Al, PO 18 kPa); 0.83% in data set [3] (6 months, 5 ° C., package 2x PE, PO 18 kPa); 0.44% in data set [3] (6 months, 5 ° C., package PE + Al, PO 3 kPa (N2)); 0.71% in data set [3] (6 months, 5 ° C., package PE + Al, PO 18 kPa). For the same compound, the “Lactone of Atorvastatin” value worked out at 0.19% in data set [4] (setting [7]); 0.14% in data set [4] (setting [8]); 0.33% in data set [4] (setting [9]); 0% in data set [4] (Initial); 0% in data set [5] (setting [10]); 0.06% in data set [5] (setting [11]). Further, the “Lactone of Atorvastatin” value in data set [5] (setting [12]) is given as 0.22%; in data set [5] (Initial), 0%. For the same compound, the “Total Impurities” value in data set [4] (setting [7]) was 0.64%; in data set [4] (setting [8]), 0.60%; in data set [4] (setting [9]), 1.32%; in data set [4] (Initial) it was 0.49%; in data set [5] (setting [10]), 0.36%; in data set [5] (setting [11]) it was 0.46%. The “Total Impurities” value in data set [5] (setting [12]) is 1.55%; in data set [5] (Initial) it was 0.49%; in data set [6] (air pressure 5.5-7.5 kPa (PO 1.2-1.5 kPa), 55 hrs, 60-65 ° C.), 0.33%; in data set [6] (air pressure 5.5-7.5 kPa (PO 1.2-1.5 kPa), 160 hrs, 80-82 ° C.), 0.37%; in data set [6] (air pressure 5.5-7.5 kPa (PO 1.2-1.5 kPa), 23 days, 20-25 ° C.), 0.29%; in data set [6] (air pressure 5.5-7.5 kPa (PO 1.2-1.5 kPa), 42 days, 40-42 ° C.) it was 0.35%. The compound also had a Total Impurities in data set [6] (normal atmospheric pressure, PO about 18 kPa, 80° C., 160 hours) of 1.92%.

Values taken from patent US20080171784A1, “Methods For the Stabilization of Atorvastatin” (ZENTIVA, A.S., priority 2003, published 2008).
